Patent US11505547B2, “Compounds” (STEP PHARMA S.A.S., priority 2017, dated 2022)

Each molecule was assayed against T1, human CTPS1 (Homo sapiens, UniProt P17812) (assay: Human CTPS1 enzyme inhibition, ADP-Glo Max assay). Details: human full length CTPS1, read-out: CTPS1 (Human CTPS1 Enzyme Inhibition data grouped by potency range, IC50).
T1 construct: purchased Proteros biostructures GmbH
T1 sequence (P17812 1-591): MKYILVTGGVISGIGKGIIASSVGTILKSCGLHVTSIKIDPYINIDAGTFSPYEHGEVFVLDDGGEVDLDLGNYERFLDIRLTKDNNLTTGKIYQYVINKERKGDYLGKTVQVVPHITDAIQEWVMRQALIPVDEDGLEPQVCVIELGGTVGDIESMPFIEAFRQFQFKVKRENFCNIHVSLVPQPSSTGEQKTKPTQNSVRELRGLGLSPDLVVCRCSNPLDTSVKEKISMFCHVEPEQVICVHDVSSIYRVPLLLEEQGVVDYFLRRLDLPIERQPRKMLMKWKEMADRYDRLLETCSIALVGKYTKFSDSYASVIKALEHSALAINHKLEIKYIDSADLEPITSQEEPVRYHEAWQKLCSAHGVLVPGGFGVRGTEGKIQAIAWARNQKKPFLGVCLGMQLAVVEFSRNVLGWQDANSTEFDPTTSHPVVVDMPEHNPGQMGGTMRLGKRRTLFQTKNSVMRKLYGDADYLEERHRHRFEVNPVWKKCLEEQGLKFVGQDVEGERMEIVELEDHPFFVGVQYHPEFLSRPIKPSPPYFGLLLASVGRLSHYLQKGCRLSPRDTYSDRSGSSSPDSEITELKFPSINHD
Format: biochemical
Procedure: Biological Example 1—Human CTPS1 Enzyme Inhibition
The enzyme inhibitory activities of compounds invented against the target of interest were determined using the ADP-Glo™ Max assay (Promega, UK). Assays for human CTPS1 were performed in 1× assay buffer containing 50 mM Tris, 10 mM MgCl2, 0.01% Tween-20, pH to 8.0 accordingly. Finally, immediately before use, L-cysteine was added to the 1× assay buffer to a final concentration of 2 mM. All reagents are from Sigma-Aldrich unless specified otherwise. Human full length active C-terminal FLAG-Hiss-tag CTPS1 (UniProtKB-P17812, CTPS[1-591]-[…]) was obtained from Proteros biostructures GmbH.
3× human CTPS1 protein was prepared in 1× assay buffer to the final working protein concentration required for the reaction. A 2 uL volume per well of 3× human CTPS1 protein was mixed with 2 uL per well of 3× test compound (compound prepared in 1× assay buffer to an appropriate final 3× compound concentration respective to the concentration response curve designed for the compounds under test) for 10 minutes at 25° C. The enzymatic reaction was then initiated by addition of a 2 uL per well volume of a pre-mixed substrate mix (UltraPure ATP from ADP-Glo™ Max kit (0.31 mM), GTP (0.034 mM), UTP (0.48 mM) and L-glutamine (0.186 mM)) and the mixture was incubated for an appropriate amount of time within the determined linear phase of the reaction at 25° C. under sealed plate conditions with constant agitation at 500 revolutions per minute (rpm). ADP-GIo™ Max reagent was added for 60 minutes (6 uL per well) and subsequently ADP-Glo™ Max development reagent was added for 60 minutes (12 uL per well) prior to signal detection in a microplate reader (EnVision® Multilabel Reader, Perkin Elmer). Following each reagent addition over the course of the assay, assay plates were pulse centrifuged for 30 seconds at 500 rpm.
In all cases, the enzyme converts ATP to ADP and the ADP-Glo™ Max reagent subsequently depletes any remaining endogenous ATP in the reaction system. The ADP-Glo™ Max detection reagent converts the ADP that has been enzymatically produced back into ATP and using ATP as a substrate together with luciferin for the enzyme luciferase, light is generated which produces a detectable luminescence. […] The percentage inhibition produced by each concentration of compound was calculated using the equation shown below: […]
Percentage inhibition was then plotted against compound concentration, and the 50% inhibitory concentration (IC50) was determined from the resultant concentration-response curve.

Compound | IC50 [nM]
COc1cc(-c2cncc(C(F)(F)F)c2)ccc1C(=O)NC(C)(C)c1csc(NS(=O)(=O)C2CC2)n1 [Example R32] | 100 to 1000
Cc1ncccc1-c1ccc(C(=O)NC(C)(C)c2csc(NS(=O)(=O)C3CC3)n2)cc1 [Example R33] | 1000 to 10000
CC(=O)c1cncc(-c2ccc(C(=O)NC(C)(C)c3csc(NS(=O)(=O)C4CC4)n3)cc2)c1 [Example R34] | 1000 to 10000
CC(C)(NC(=O)c1ccc(-c2cncc(C(F)(F)F)c2)cc1)c1csc(NS(=O)(=O)C2CC2)n1 [Example R35, N-(2-(2-(cyclopropanesulfonamido)thiazol-4-yl)propan-2-yl)-4-(5-(trifluoromethyl)pyridin-3-yl)benzamide] | < 100
CC(C)(NC(=O)c1ccc(-c2cncc(F)c2)cc1)c1csc(NS(=O)(=O)C2CC2)n1 [Example R36, N-(2-(2-(cyclopropanesulfonamido)thiazol-4-yl)propan-2-yl)-4-(5-fluoropyridin-3-yl)benzamide] | 100 to 1000
Cc1cncc(-c2ccc(C(=O)NC(C)(C)c3csc(NS(=O)(=O)C4CC4)n3)cc2)c1 [Example R37, N-(2-(2-(cyclopropanesulfonamido)thiazol-4-yl)propan-2-yl)-4-(5-methylpyridin-3-yl)benzamide] | < 100
COc1cncc(-c2ccc(C(=O)NC(C)(C)c3csc(NS(=O)(=O)C4CC4)n3)cc2)c1 [Example R38, N-(2-(2-(cyclopropanesuIfonamido)thiazol-4-yl)propan-2-yl)-4-(5-methoxypyridin-3-yl)benzamide] | 100 to 1000
CC(C)(NC(=O)c1ccc(-c2cccnc2)cc1)c1csc(NS(=O)(=O)C2CC2)n1 [Example R39, N-(2-(2-(cyclopropanesulfonamido)thiazol-4-yl)propan-2-yl)-4-(pyridin-3-yl)benzamide] | 100 to 1000
CC(C)(NC(=O)c1ccc(-c2cccc(C(F)(F)F)c2)cc1)c1csc(NS(=O)(=O)C2CC2)n1 [Example R40, N-(2-(2-(cyclopropanesulfonamido)thiazol-4-yl)propan-2-yl)-3′-(trifluoromethyl)-[1,1′-biphenyl]-4-carboxamide] | 100 to 1000
CCc1cncc(-c2ccc(C(=O)NC(C)(C)c3csc(NS(=O)(=O)C4CC4)n3)c(F)c2)n1 [Example R41, N-(2-(2-(cyclopropanesuIfonamido)thiazol-4-yl)propan-2-yl)-4-(6-ethylpyrazin-2-yl)-2-fluorobenzamide] | 100 to 1000
CC(C)(NC(=O)c1ccc(-c2cncc(C(F)(F)F)n2)cc1F)c1csc(NS(=O)(=O)C2CC2)n1 [Example R42, N-(2-(2-(cyclopropanesuIfonamido)thiazol-4-yl)propan-2-yl)-2-fluoro-4-(6-(trifluoromethyl)pyrazin-2-yl)benzamide] | < 100
CC(C)Oc1cncc(-c2ccc(C(=O)NC(C)(C)c3csc(NS(=O)(=O)C4CC4)n3)c(F)c2)n1 [Example R43, N-(2-(2-(cyclopropanesulfonamido)thiazol-4-yl)propan-2-yl)-2-fluoro-4-(6-isopropoxypyrazin-2-yl)benzamide] | < 100
CC(C)(NC(=O)c1ccc(-c2cncc(OCC(F)(F)F)n2)cc1F)c1csc(NS(=O)(=O)C2CC2)n1 [Example R44, N-(2-(2-(cyclopropanesuIfonamido)thiazol-4-yl)propan-2-yl)-2-fluoro-4-(6-(2,2,2-trifluoroethoxy)pyrazin-2-yl)benzamide] | 100 to 1000
Cc1cc(-c2cncc(C(F)(F)F)n2)ccc1C(=O)NC(C)(C)c1csc(NS(=O)(=O)C2CC2)n1 [Example R45, N-(2-(2-(cyclopropanesulfonamido)thiazol-4-yl)propan-2-yl)-2-methyl-4-(6-(trifluoromethyl)pyrazin-2-yl)benzamide] | 100 to 1000
CCOc1cncc(-c2ccc(C(=O)NC(C)(C)c3csc(NS(=O)(=O)C4CC4)n3)c(C)c2)n1 [Example R46, N-(2-(2-(cyclopropanesuIfonamido)thiazol-4-yl)propan-2-yl)-4-(6-ethoxypyrazin-2-yl)-2-methylbenzamide] | 100 to 1000

Second part, the molecule after the results:

IC50 [nM] | Compound
100 to 1000 | CCOc1cncc(-c2ccc(C(=O)NC(C)(C)c3csc(NS(=O)(=O)C4CC4)n3)c(C(F)(F)F)c2)n1 [Example R47, N-(2-(2-(cyclopropanesuIfonamido)thiazol-4-yl)propan-2-yl)-4-(6-ethoxypyrazin-2-yl)-2-(trifluoromethyl)benzamide]
100 to 1000 | COc1cc(-c2cncc(C(F)(F)F)n2)ccc1C(=O)NC(C)(C)c1csc(NS(=O)(=O)C2CC2)n1 [Example R48, N-(2-(2-(cyclopropanesuIfonamido)thiazol-4-yl)propan-2-yl)-2-methoxy-4-(6-(trifluoromethyl)pyrazin-2-yl)benzamide]
100 to 1000 | COc1cc(-c2cncc(Cl)n2)ccc1C(=O)NC(C)(C)c1csc(NS(=O)(=O)C2CC2)n1 [Example R49, 4-(6-chloropyrazin-2-yl)-N-(2-(2-(cyclopropanesulfonamido)thiazol-4-yl)propan-2-yl)-2-methoxybenzamide]
1000 to 10000 | COc1cc(-c2cncc(C#N)n2)ccc1C(=O)NC(C)(C)c1csc(NS(=O)(=O)C2CC2)n1 [Example R50, 4-(6-cyanopyrazin-2-yl)-N-(2-(2-(cyclopropanesulfonamido)thiazol-4-yl)propan-2-yl)-2-methoxybenzamide]
< 100 | CC(C)(NC(=O)c1ccc(-c2cncc(C(F)(F)F)n2)cc1)c1csc(NS(=O)(=O)C2CC2)n1 [Example R51, N-(2-(2-(cyclopropanesulfonamido)thiazol-4-yl)propan-2-yl)-4-(6-(trifluoromethyl)pyrazin-2-yl)benzamide]
< 100 | CC(C)(NC(=O)c1ccc(-c2cncc(Cl)n2)cc1)c1csc(NS(=O)(=O)C2CC2)n1 [Example R52, 4-(6-chloropyrazin-2-yl)-N-(2-(2-(cyclopropanesulfonamido)thiazol-4-yl)propan-2-yl)benzamide]
100 to 1000 | Cc1cncc(-c2ccc(C(=O)NC(C)(C)c3csc(NS(=O)(=O)C4CC4)n3)cc2)n1 [Example R53, N-(2-(2-(cyclopropanesulfonamido)thiazol-4-yl)propan-2-yl)-4-(6-methylpyrazin-2-yl)benzamide]
< 100 | COc1cncc(-c2ccc(C(=O)NC(C)(C)c3csc(NS(=O)(=O)C4CC4)n3)cc2)n1 [Example R54, N-(2-(2-(cyclopropanesulfonamido)thiazol-4-yl)propan-2-yl)-4-(6-methoxypyrazin-2-yl)benzamide]
< 100 | CCOc1cncc(-c2ccc(C(=O)NC(C)(C)c3csc(NS(=O)(=O)C4CC4)n3)cc2)n1 [Example R55, N-(2-(2-(cyclopropanesulfonamido)thiazol-4-yl)propan-2-yl)-4-(6-ethoxypyrazin-2-yl)benzamide]
< 100 | CC(C)Oc1cncc(-c2ccc(C(=O)NC(C)(C)c3csc(NS(=O)(=O)C4CC4)n3)cc2)n1 [Example R56, N-(2-(2-(cyclopropanesulfonamido)thiazol-4-yl)propan-2-yl)-4-(6-isopropoxypyrazin-2-yl)benzamide]
100 to 1000 | CC(C)(NC(=O)c1ccc(-c2cncc(OCC(F)(F)F)n2)cc1)c1csc(NS(=O)(=O)C2CC2)n1 [Example R57, N-(2-(2-(cyclopropanesuIfonamido)thiazol-4-yl)propan-2-yl)-4-(6-(2,2,2-trifluoroethoxy)pyrazin-2-yl)benzamide]
100 to 1000 | CC(C)(NC(=O)c1ccc(-c2cnccn2)cc1)c1csc(NS(=O)(=O)C2CC2)n1 [Example R58, N-(2-(2-(cyclopropanesulfonamido)thiazol-4-yl)propan-2-yl)-4-(pyrazin-2-yl)benzamide]
